# From US20240165137A1, “METHODS FOR IMPROVING MUSCLE STRENGTH AND MOBILITY” (Intrinsic Medicine, Inc., priority 2020, published 2024)
# Tested on: CEBPB expression in LPS-stimulated THP-1 cells
# Test: Nascent RNA sequencing of LPS-stimulated THP-1 cells (CEBPB expression)
# Type: cell-based
# Conditions: 10 ng/mL LPS and 250 μM 2′FL
# Method: THP-1 Cells were treated with 10 ng/mL LPS or 10 ng/mL LPS and 250 μM 2′FL and extracted for nascent RNAs at 30 min and 24 hours. The nascent RNAs were sequenced and analyzed as described in Azofeifa et al. (2018), Genome Res. 28: 334-344; the contents of which are expressly incorporated by reference herein.
smiles,measurement,setting,value
"CC1O[C@@H](OC2[C@H](O[C@H]3C(O)C(O)C(O)O[C@H]3CO)OC(CO)[C@H](O)[C@@H]2O)C(O)[C@@H](O)[C@@H]1O (stereo partly drawn) [2′FL, 2′-fucosyllactose]","CEBPB maximum enrichment score (nascent RNAs, 2′FL+LPS versus LPS alone)",30 min,40
same,"CEBPB maximum enrichment score (nascent RNAs, 2′FL+LPS versus LPS alone)",24 hours,20
same,"CEBPB expression (nascent RNAs, 2′FL+LPS versus LPS alone)",both the 30 min and 24 hour time points,enhanced and upregulated
